Laboratory results taken from the NIST ThermoML archive (doi:10.1021/je400056z).
± gives the expanded uncertainty stated by the source.

Experiment: xn = mol fraction of the nth substance listed
Conditions: Liquid, Vibrating tube method

CCCCCCC [heptane] + O=C=O
Conditions | mass density [kg/m3]
322.91 K, 22022 kPa, x2 = 0.7514 | 759.49 ± 0.38
322.91 K, 23010 kPa, x2 = 0.7514 | 762.14 ± 0.38
322.91 K, 23983 kPa, x2 = 0.7514 | 764.78 ± 0.39
322.91 K, 24907 kPa, x2 = 0.7514 | 767.21 ± 0.4
322.94 K, 3016 kPa, x2 = 0.0218 | 663.11 ± 0.28
322.94 K, 4008 kPa, x2 = 0.0218 | 664.28 ± 0.29
322.94 K, 5006 kPa, x2 = 0.0218 | 665.41 ± 0.29
322.94 K, 5006 kPa, x2 = 0.5085 | 691.2 ± 0.3
322.94 K, 6002 kPa, x2 = 0.0218 | 666.44 ± 0.3
322.94 K, 6004 kPa, x2 = 0.5085 | 693.82 ± 0.3
322.94 K, 7003 kPa, x2 = 0.0218 | 667.61 ± 0.31
322.94 K, 7005 kPa, x2 = 0.5085 | 696.6 ± 0.3
322.94 K, 8006 kPa, x2 = 0.0218 | 668.67 ± 0.32
322.94 K, 8009 kPa, x2 = 0.5085 | 698.81 ± 0.31
322.94 K, 8995 kPa, x2 = 0.0218 | 669.76 ± 0.33
322.94 K, 9010 kPa, x2 = 0.5085 | 701.04 ± 0.32
322.94 K, 10002 kPa, x2 = 0.0218 | 670.79 ± 0.33
322.94 K, 10006 kPa, x2 = 0.5085 | 703.24 ± 0.32
322.94 K, 10997 kPa, x2 = 0.5085 | 705.29 ± 0.33
322.94 K, 11002 kPa, x2 = 0.0218 | 671.78 ± 0.34
322.94 K, 11999 kPa, x2 = 0.0218 | 672.82 ± 0.35
322.94 K, 12001 kPa, x2 = 0.5085 | 707.34 ± 0.34
322.94 K, 12998 kPa, x2 = 0.5085 | 709.37 ± 0.34
322.94 K, 13000 kPa, x2 = 0.0218 | 673.79 ± 0.36
322.94 K, 14001 kPa, x2 = 0.0218 | 674.79 ± 0.37
322.94 K, 14004 kPa, x2 = 0.5085 | 711.26 ± 0.35
322.94 K, 15002 kPa, x2 = 0.0218 | 675.77 ± 0.38
322.94 K, 15009 kPa, x2 = 0.5085 | 713.17 ± 0.36
322.94 K, 15998 kPa, x2 = 0.0218 | 676.69 ± 0.39
322.94 K, 16004 kPa, x2 = 0.5085 | 715.02 ± 0.36
322.94 K, 17002 kPa, x2 = 0.0218 | 677.65 ± 0.4
322.94 K, 17009 kPa, x2 = 0.5085 | 716.84 ± 0.37
322.94 K, 18003 kPa, x2 = 0.0218 | 678.53 ± 0.4
322.94 K, 18003 kPa, x2 = 0.5085 | 718.61 ± 0.37
322.94 K, 18995 kPa, x2 = 0.0218 | 679.45 ± 0.41
322.94 K, 19009 kPa, x2 = 0.5085 | 720.34 ± 0.38
322.94 K, 20004 kPa, x2 = 0.5085 | 722.03 ± 0.39
322.94 K, 20009 kPa, x2 = 0.0218 | 680.41 ± 0.42
322.94 K, 20999 kPa, x2 = 0.0218 | 681.28 ± 0.43
322.94 K, 21007 kPa, x2 = 0.5085 | 723.66 ± 0.39
322.94 K, 21995 kPa, x2 = 0.5085 | 725.31 ± 0.4
322.94 K, 22005 kPa, x2 = 0.0218 | 682.14 ± 0.44
322.94 K, 23002 kPa, x2 = 0.5085 | 726.96 ± 0.41
322.94 K, 23011 kPa, x2 = 0.0218 | 683.03 ± 0.45
322.94 K, 24002 kPa, x2 = 0.5085 | 728.57 ± 0.41
322.94 K, 24009 kPa, x2 = 0.0218 | 683.94 ± 0.46
322.94 K, 24961 kPa, x2 = 0.0218 | 684.87 ± 0.47
322.94 K, 25011 kPa, x2 = 0.5085 | 730.19 ± 0.42
322.96 K, 12028 kPa, x2 = 0.9496 | 666.43 ± 0.92
322.96 K, 13010 kPa, x2 = 0.9496 | 691.64 ± 0.69
322.96 K, 13994 kPa, x2 = 0.9496 | 711.79 ± 0.61
322.96 K, 14997 kPa, x2 = 0.9496 | 728.42 ± 0.56
322.96 K, 16006 kPa, x2 = 0.9496 | 742.98 ± 0.52
322.96 K, 17008 kPa, x2 = 0.9496 | 755.69 ± 0.49
322.96 K, 17999 kPa, x2 = 0.9496 | 766.84 ± 0.47
322.96 K, 19001 kPa, x2 = 0.9496 | 777.08 ± 0.45
322.96 K, 20001 kPa, x2 = 0.9496 | 786.26 ± 0.44
322.96 K, 20994 kPa, x2 = 0.9496 | 794.84 ± 0.43
322.96 K, 21997 kPa, x2 = 0.9496 | 802.85 ± 0.42
322.96 K, 23019 kPa, x2 = 0.9496 | 810.46 ± 0.41
322.96 K, 23997 kPa, x2 = 0.9496 | 817.33 ± 0.4
322.96 K, 24395 kPa, x2 = 0.9496 | 820.02 ± 0.39
332.7 K, 12055 kPa, x2 = 0.9496 | 554.72 ± 1.1
332.7 K, 13001 kPa, x2 = 0.9496 | 599.39 ± 0.97
332.7 K, 14003 kPa, x2 = 0.9496 | 633.33 ± 0.81
332.7 K, 14995 kPa, x2 = 0.9496 | 659.11 ± 0.71
332.7 K, 16003 kPa, x2 = 0.9496 | 680.52 ± 0.64
332.7 K, 16980 kPa, x2 = 0.9496 | 697.86 ± 0.59
332.7 K, 18002 kPa, x2 = 0.9496 | 713.39 ± 0.55
332.7 K, 19004 kPa, x2 = 0.9496 | 727.03 ± 0.53
332.7 K, 19979 kPa, x2 = 0.9496 | 738.9 ± 0.51
332.7 K, 20995 kPa, x2 = 0.9496 | 749.98 ± 0.49
332.7 K, 22006 kPa, x2 = 0.9496 | 760 ± 0.48
332.7 K, 23011 kPa, x2 = 0.9496 | 769.32 ± 0.46
332.7 K, 24046 kPa, x2 = 0.9496 | 778.17 ± 0.46
332.7 K, 24505 kPa, x2 = 0.9496 | 781.98 ± 0.45
332.72 K, 5013 kPa, x2 = 0.3148 | 672.27 ± 0.29
332.72 K, 6004 kPa, x2 = 0.3148 | 673.82 ± 0.3
332.72 K, 7000 kPa, x2 = 0.3148 | 675.27 ± 0.31
332.72 K, 8008 kPa, x2 = 0.3148 | 676.79 ± 0.32
332.72 K, 9003 kPa, x2 = 0.3148 | 678.48 ± 0.32
332.72 K, 10007 kPa, x2 = 0.3148 | 680.17 ± 0.33
332.72 K, 11008 kPa, x2 = 0.3148 | 681.84 ± 0.34
332.72 K, 11995 kPa, x2 = 0.3148 | 683.4 ± 0.35
332.72 K, 12994 kPa, x2 = 0.3148 | 684.97 ± 0.35
332.72 K, 14002 kPa, x2 = 0.3148 | 686.5 ± 0.36
332.72 K, 15009 kPa, x2 = 0.3148 | 688.01 ± 0.37
332.72 K, 16005 kPa, x2 = 0.3148 | 689.47 ± 0.38
332.72 K, 16994 kPa, x2 = 0.3148 | 690.88 ± 0.39
332.72 K, 17996 kPa, x2 = 0.3148 | 692.28 ± 0.39
332.72 K, 19002 kPa, x2 = 0.3148 | 693.66 ± 0.4
332.72 K, 20001 kPa, x2 = 0.3148 | 695.02 ± 0.41
332.72 K, 21004 kPa, x2 = 0.3148 | 696.34 ± 0.42
332.72 K, 22014 kPa, x2 = 0.3148 | 697.64 ± 0.43
332.72 K, 22998 kPa, x2 = 0.3148 | 698.95 ± 0.43
332.72 K, 24000 kPa, x2 = 0.3148 | 700.22 ± 0.44
332.72 K, 25010 kPa, x2 = 0.3148 | 701.53 ± 0.45
332.73 K, 9976 kPa, x2 = 0.7514 | 687.42 ± 0.38
332.73 K, 11027 kPa, x2 = 0.7514 | 694.77 ± 0.41
332.73 K, 12005 kPa, x2 = 0.7514 | 701.07 ± 0.39
332.73 K, 13004 kPa, x2 = 0.7514 | 706.72 ± 0.39
332.73 K, 14002 kPa, x2 = 0.7514 | 712.07 ± 0.38
332.73 K, 15007 kPa, x2 = 0.7514 | 716.96 ± 0.38
332.73 K, 16008 kPa, x2 = 0.7514 | 721.73 ± 0.38
332.73 K, 17006 kPa, x2 = 0.7514 | 726.16 ± 0.38
332.73 K, 17992 kPa, x2 = 0.7514 | 730.25 ± 0.38
332.73 K, 19005 kPa, x2 = 0.7514 | 734.18 ± 0.39
332.73 K, 19992 kPa, x2 = 0.7514 | 737.97 ± 0.39
332.73 K, 21048 kPa, x2 = 0.7514 | 741.67 ± 0.39
332.73 K, 21991 kPa, x2 = 0.7514 | 745.02 ± 0.39
332.73 K, 22997 kPa, x2 = 0.7514 | 748.43 ± 0.4
332.73 K, 23997 kPa, x2 = 0.7514 | 751.86 ± 0.4
332.73 K, 24860 kPa, x2 = 0.7514 | 754.69 ± 0.4
332.8 K, 3011 kPa, x2 = 0.0218 | 654.41 ± 0.28
332.8 K, 4004 kPa, x2 = 0.0218 | 655.67 ± 0.29
332.8 K, 5003 kPa, x2 = 0.0218 | 656.85 ± 0.3
332.8 K, 6000 kPa, x2 = 0.0218 | 658.03 ± 0.3
332.8 K, 7004 kPa, x2 = 0.0218 | 659.2 ± 0.31
332.8 K, 8007 kPa, x2 = 0.0218 | 660.37 ± 0.32
332.8 K, 9001 kPa, x2 = 0.0218 | 661.51 ± 0.33
332.8 K, 10004 kPa, x2 = 0.0218 | 662.62 ± 0.34
332.8 K, 10998 kPa, x2 = 0.0218 | 663.71 ± 0.35
332.8 K, 12002 kPa, x2 = 0.0218 | 664.82 ± 0.36
332.8 K, 12996 kPa, x2 = 0.0218 | 665.83 ± 0.37
332.8 K, 13999 kPa, x2 = 0.0218 | 666.94 ± 0.37
332.8 K, 15004 kPa, x2 = 0.0218 | 667.94 ± 0.38
332.8 K, 16005 kPa, x2 = 0.0218 | 668.95 ± 0.39
332.8 K, 16998 kPa, x2 = 0.0218 | 669.95 ± 0.4
332.8 K, 18005 kPa, x2 = 0.0218 | 670.91 ± 0.41
332.8 K, 19003 kPa, x2 = 0.0218 | 671.91 ± 0.42
332.8 K, 20002 kPa, x2 = 0.0218 | 672.83 ± 0.43
332.8 K, 21008 kPa, x2 = 0.0218 | 673.8 ± 0.44
332.8 K, 21997 kPa, x2 = 0.0218 | 674.76 ± 0.45
332.8 K, 22998 kPa, x2 = 0.0218 | 675.69 ± 0.46
332.8 K, 24009 kPa, x2 = 0.0218 | 676.63 ± 0.47
